Assay results reported in patent publication US20180170983A1, “New Use of Cell-Permeable Peptide Inhibitors of the JNK Signal Transduction Pathway for the Treatment of Mild Cognitive Impairment” (Xigen Inflammation Ltd., priority 2015, published 2018).
Square brackets hold non-standard residues; d marks the D form. Ends that are not written are not given here.

Key:
JNK = settings: JBDs of IB1 and IB2 vs c-Jun or ATF2; cited from earlier work
hippocampal CA1 neurons = settings: in vivo, transient global ischemia; cited from earlier work
βTC-3 cell cultures = test: Cellular import of fluorescein-labeled TAT and TAT-IB1(s) peptides; format: cell-based; settings: for entry of fluorescein labeled peptide into cells: labeled peptides (1 PM), BSA 1 μM, βTC-3 cells
Procedure: The ability of the L- and D-enantiomeric forms of TAT and TAT-IB(s) peptides (“TAT-IB peptides”) to enter cells was evaluated. L-TAT, D-TAT, L-TAT-IB1(s), and D-TAT-IB1(s) peptides [SEQ ID NOs: 5, 6, 9 and 12, respectively] were labeled by N-terminal addition of a glycine residue conjugated to fluorescein. Labeled peptides (1 PM) were added to βTC-3 cell cultures, which were maintained as described in Example 3. At predetermined times cells were washed with PBS and fixed for five minutes in ice-cold methanol-acetone (1:1) before being examined under a fluorescence microscope. Fluorescein-labeled BSA (1 μM, 12 moles/mole BSA) was used as a control.
Little to no signal was present at 48 hours.
Fluorescent signals from these all-D retro-inverso peptides were still very strong 1 week later, and the signal was only slightly diminished at 2 weeks post treatment.

[1] = system: primary embryonic cultures and differentiated PC12 cells; settings: at dosages that inhibit activation of JNKs; after trophic withdrawal and in mice treated with 1-methyl-4-phenyl tetrahydropyridine; cited from earlier work
[2] = system: cultured chick embryonic dorsal root ganglion, sympathetic, ciliary and motor neurons; settings: cited from earlier work
βTC-3 cells = test: IL-1β induced pancreatic beta-cell death, peptide addition; format: cell-based; settings: one single addition of peptide 1 μM, two days of incubation with IL-1β
Procedure: Inhibition of IL-1β induced pancreatic beta-cell death by the D-TAT-IB1(s) peptide was analyzed. βTC-3 cells were incubated as described above for 30 minutes with one single addition of the indicated peptides (1 μM), then IL-1 (10 ng/ml) was added.
Apoptotic cells were then counted after two days of incubation with IL-1β by use of Propidium Iodide and Hoechst 33342 nuclear staining. A minimum of 1,000 cells were counted for each experiment. Standard Error of the Means (SEM) are indicated, n=5.
Long term inhibition of IL-1P induced cell-death by the D-TAT-IB1 peptide was also analyzed. βTC-3 cells were incubated as above for 30 minutes with one single addition of the indicated peptides (1 μM), then […] (10 ng/ml) was added, followed by addition of the cytokine every two days. Apoptotic cells were then counted after 15 days of incubation with IL-1 by use of propidium iodide and Hoechst 33342 nuclear staining. […] A minimum of 1.000 cells were counted for each experiment.

IPSPSVEEPHKHRPTTLRLTTLGAQDS (Description of sequence Peptide IB2-long (see Table 1))
efficiency in binding JNK relative to c-Jun or ATF2 (JNK): approximately 100 fold

N#CC(c1ccnc(NCCc2cccnc2)n1)c1nc2ccccc2s1 (stereo not shown) [AS601245]
protection against the delayed loss of hippocampal CA1 neurons (hippocampal CA1 neurons): provided significant protection

RRRQRRKKRG (D-amino acids; Description of sequence Peptide D-TAT (see Table 1); MUTAGEN (1)..(10) all amino acids are D-amino acids)
stability inside the cells (βTC-3 cell cultures): extremely stable inside the cells

CCSCc1ccc2c(c1)c1c3c(c4c5cc(CSCC)ccc5n5c4c1n2[C@H]1C[C@](O)(C(=O)OC)[C@]5(C)O1)CNC3=O [CEP-1347]
neuronal survival [1]: promotes neuronal survival
long term-survival of neurons [2]: can promote long term-survival

TDQSRPVQPFLNLTTPRKPRYTDPPRRRQRRKKRG ([dT][dD][dQ][dS][dR][dP][dV][dQ][dP][dF][dL][dN][dL][dT][dT][dP][dR][dK][dP][dR][dY][dT][dD][dP][dP][dR][dR][dR][dQ][dR][dR][dK][dK][dR]G) [D-TAT-IB1]
IL-1 induced apoptosis (βTC-3 cells): decreased IL-1 induced apoptosis to a similar extent as L-TAT-IB peptides

GRKKRRQRRRPPRPKRPTTLNLFPQVPRSQD [L-TAT-IB1(s)]
entry of fluorescein labeled peptide into cells (βTC-3 cell cultures): efficiently and rapidly (less than five minutes) entered cells

GRKKRRQRRR (Description of sequence Peptide L-TAT (see Table 1))
entry of fluorescein labeled peptide into cells (βTC-3 cell cultures): efficiently and rapidly (less than five minutes) entered cells

PGTGCGDTYRPKRPTTLNLFPQVPRSQDT (Description of sequence peptide IB1-long (see Table 1))
efficiency in binding JNK relative to c-Jun or ATF2 (JNK): approximately 100 fold

CC(C)C[C@@H](NC(=O)[C@@H](Cc1ccccc1)NC(=O)[C@H]1CCCN1C(=O)[C@@H](CCC(N)=O)NC(=O)[C@H](NC(=O)[C@H]1CCCN1C(=O)[C@@H](CCCNC(=N)N)NC(=O)[C@@H](CO)NC(=O)[C@@H](CCC(N)=O)NC(=O)[C@H](N)CC(=O)O)C(C)C)C(=O)N[C@H](CC(N)=O)C(=O)N[C@H](CC(C)C)C(=O)N[C@@H](C(=O)N[C@@H](C(=O)N1CCC[C@@H]1C(=O)N[C@H](CCCNC(=N)N)C(=O)N[C@H](CCCCN)C(=O)N1CCC[C@@H]1C(=O)N[C@H](CCCNC(=N)N)C(=O)N1CCC[C@@H]1C(=O)N1CCC[C@@H]1C(=O)N[C@H](CCCNC(=N)N)C(=O)N[C@H](CCCNC(=N)N)C(=O)N[C@H](CCCNC(=N)N)C(=O)N[C@H](CCC(N)=O)C(=O)N[C@H](CCCNC(=N)N)C(=O)N[C@H](CCCNC(=N)N)C(=O)N[C@H](CCCCN)C(=O)N[C@H](CCCCN)C(=O)N[C@H](CCCNC(=N)N)C(=O)NCC(=O)O)[C@H](C)O)[C@H](C)O [XG-102]
stability inside the cells (βTC-3 cell cultures): extremely stable inside the cells
